Measurements taken from patent US20140005163A1 (NOVARTIS AG, priority 2010, published 2014).

Legend:
PI3K alpha = target: T1, PI3K alpha (Homo sapiens, UniProt P42336); experiment: PI3K alpha kinase assay (Kinase-Glo luminescence); format: biochemical
T1 construct: p85(iSH2) fusion partner (see partner chain) (N); His tag (C); made in house; host or cells: baculovirus; Tn5 (Trichoplusia ni) or TiniPro insect cells
Outline: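 Compounds are titrated at 8 concentrations and mixed with PI3Kα protein (EMV B1075, 10 nM) in phosphatidylinositol (10 μg/mL). ATP at 1 μM starts the 60-minute room-temperature reaction, which is stopped with Kinase-Glo before luminescence reading. Four-parameter curve fitting gives IC50.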

mTOR = target: T2, mTOR (Homo sapiens, UniProt P42345); experiment: Biochemical assay for m-TOR by TR-FRET; conditions: 8 μM ATP, 400 nM GFP-4EBP1, 0.5 nM mTOR
T2 construct: purchased Invitrogen Corporation (Carlsbad/CA, USA) PV4753
Outline: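 Enzyme 0.5 nM, GFP-4EBP1 400 nM, ATP 8 μM (all final); 50 mM HEPES pH 7.5, 10 mM MnCl2, 1 mM DTT; rt. Detection: Tb-α-p4EBP1 [pT46] 0.5 nM in EDTA, TR-FRET, 15 min. Reference compound on every plate, 16-point duplicate dilutions.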

T1 sequence (P42336 with tags, fused parts or gaps limits assumed): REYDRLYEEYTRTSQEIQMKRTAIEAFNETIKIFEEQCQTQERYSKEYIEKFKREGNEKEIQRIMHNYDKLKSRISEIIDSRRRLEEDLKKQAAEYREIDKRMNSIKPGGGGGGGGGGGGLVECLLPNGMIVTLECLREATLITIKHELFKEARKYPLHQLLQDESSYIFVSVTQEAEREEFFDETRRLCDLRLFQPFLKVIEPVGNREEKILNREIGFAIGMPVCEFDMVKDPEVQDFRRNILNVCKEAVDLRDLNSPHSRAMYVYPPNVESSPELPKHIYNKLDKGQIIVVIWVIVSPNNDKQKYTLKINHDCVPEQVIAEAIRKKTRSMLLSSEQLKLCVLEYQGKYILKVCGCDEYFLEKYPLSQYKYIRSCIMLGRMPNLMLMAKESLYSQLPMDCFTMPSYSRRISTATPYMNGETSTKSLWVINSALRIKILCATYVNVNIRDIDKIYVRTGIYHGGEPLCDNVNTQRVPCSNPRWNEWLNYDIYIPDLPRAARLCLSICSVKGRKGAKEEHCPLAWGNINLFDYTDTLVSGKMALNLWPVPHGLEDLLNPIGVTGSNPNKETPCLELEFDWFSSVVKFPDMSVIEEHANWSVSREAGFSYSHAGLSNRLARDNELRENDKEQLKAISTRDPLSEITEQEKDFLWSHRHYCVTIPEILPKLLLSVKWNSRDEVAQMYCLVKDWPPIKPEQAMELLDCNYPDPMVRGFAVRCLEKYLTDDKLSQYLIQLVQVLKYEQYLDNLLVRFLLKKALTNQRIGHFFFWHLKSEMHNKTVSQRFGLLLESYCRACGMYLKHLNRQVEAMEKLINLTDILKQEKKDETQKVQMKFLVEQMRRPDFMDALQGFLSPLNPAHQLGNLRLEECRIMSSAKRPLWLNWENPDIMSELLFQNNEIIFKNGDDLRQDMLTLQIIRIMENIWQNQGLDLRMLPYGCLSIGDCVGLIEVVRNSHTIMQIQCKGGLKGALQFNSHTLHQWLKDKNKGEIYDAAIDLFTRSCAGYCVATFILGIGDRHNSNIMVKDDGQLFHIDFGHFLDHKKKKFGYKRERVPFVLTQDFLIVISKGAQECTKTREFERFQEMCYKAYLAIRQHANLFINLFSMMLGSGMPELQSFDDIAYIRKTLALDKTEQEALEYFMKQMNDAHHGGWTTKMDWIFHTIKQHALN
T2 sequence (P42345 1360-2549 limits assumed): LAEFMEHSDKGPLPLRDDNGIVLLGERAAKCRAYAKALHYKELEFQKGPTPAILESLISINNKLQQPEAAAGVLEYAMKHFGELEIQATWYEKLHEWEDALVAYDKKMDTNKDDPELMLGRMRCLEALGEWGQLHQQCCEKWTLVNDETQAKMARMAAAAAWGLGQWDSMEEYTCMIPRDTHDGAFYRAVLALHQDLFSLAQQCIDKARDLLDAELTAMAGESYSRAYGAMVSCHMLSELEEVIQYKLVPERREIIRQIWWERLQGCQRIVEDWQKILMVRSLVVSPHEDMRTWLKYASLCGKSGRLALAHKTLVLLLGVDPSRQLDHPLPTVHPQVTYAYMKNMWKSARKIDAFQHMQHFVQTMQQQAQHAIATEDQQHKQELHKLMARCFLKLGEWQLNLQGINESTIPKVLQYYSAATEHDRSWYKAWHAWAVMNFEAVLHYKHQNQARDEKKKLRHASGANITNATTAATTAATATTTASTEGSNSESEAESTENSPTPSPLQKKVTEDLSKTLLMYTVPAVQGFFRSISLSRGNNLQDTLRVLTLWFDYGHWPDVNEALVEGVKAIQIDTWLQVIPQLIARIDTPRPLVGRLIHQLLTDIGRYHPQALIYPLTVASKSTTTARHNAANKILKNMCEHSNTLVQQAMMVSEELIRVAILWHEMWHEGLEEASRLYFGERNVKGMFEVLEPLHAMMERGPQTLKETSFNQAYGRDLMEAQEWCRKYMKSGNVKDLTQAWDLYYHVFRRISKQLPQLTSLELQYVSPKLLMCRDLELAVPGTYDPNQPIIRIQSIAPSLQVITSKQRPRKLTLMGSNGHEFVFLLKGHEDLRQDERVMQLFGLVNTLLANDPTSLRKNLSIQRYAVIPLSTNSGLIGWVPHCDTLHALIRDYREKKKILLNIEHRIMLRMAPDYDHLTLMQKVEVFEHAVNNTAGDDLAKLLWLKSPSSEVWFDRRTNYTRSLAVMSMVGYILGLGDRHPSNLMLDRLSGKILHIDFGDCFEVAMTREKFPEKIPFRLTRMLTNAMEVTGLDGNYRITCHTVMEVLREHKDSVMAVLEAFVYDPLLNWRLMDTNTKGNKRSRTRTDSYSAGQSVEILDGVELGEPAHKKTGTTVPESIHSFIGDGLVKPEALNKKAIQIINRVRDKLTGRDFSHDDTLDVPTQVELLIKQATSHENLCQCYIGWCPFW

| IC50 (PI3K alpha) [µM] | IC50 (mTOR) [µM] | SMILES |
| --- | --- | --- |
| 0.092 | 0.479 | CNc1ncc(-c2ccc3ncc4c(c3c2)n(-c2c(C)noc2C)c(=O)n4C)cc1Cl [Example 146.6, 8-(5-Chloro-6-methylamino-pyridin-3-yl)-1-(3,5-dimethyl-isoxazol-4-yl)-3-methyl-1,3-dihydro-imidazo[4,5-c]quinolin-2-one] |
| 0.025 | 0.011 | CCNc1ncc(-c2ccc3ncc4c(c3c2)n(-c2cn(C)nc2C)c(=O)n4C)cc1Cl [Example 147, 8-(5-Chloro-6-ethylamino-pyridin-3-yl)-1-(1,3-dimethyl-1H-pyrazol-4-yl)-3-methyl-1,3-dihydro-imidazo[4,5-c]quinolin-2-one] |
| 0.006 | 0.015 | Cc1nn(C)cc1-n1c(=O)n(C)c2cnc3ccc(-c4cnc(F)c(N(C)C)c4)cc3c21 [Example 151, 8-(5-Dimethylamino-6-fluoro-pyridin-3-yl)-1-(1,3-dimethyl-1H-pyrazol-4-yl)-3-methyl-1,3-dihydro-imidazo[4,5-c]quinolin-2-one] |
| 0.072 | 0.07 | CNc1cc(-c2ccc3ncc4c(c3c2)n(-c2c(C)nn(C)c2C)c(=O)n4C)cnc1CO [Example 158.4, 8-(6-Hydroxymethyl-5-methylamino-pyridin-3-yl)-3-methyl-1-(1,3,5-trimethyl-1H-pyrazol-4-yl)-1,3-dihydro-imidazo[4,5-c]quinolin-2-one] |
| 0.015 | 0.055 | CCOCc1cc(-c2ccc3ncc4c(c3c2)n(-c2cn(CC)nc2C)c(=O)n4C)cnc1N [Example 166.2, 8-(6-Amino-5-ethoxymethyl-pyridin-3-yl)-1-(1-ethyl-3-methyl-1H-pyrazol-4-yl)-3-methyl-1,3-dihydro-imidazo[4,5-c]quinolin-2-one] |
| 0.014 | 0.012 | COCc1cc(-c2ccc3ncc4c(c3c2)n(-c2cn(C(C)C)nc2C)c(=O)n4C)cnc1N [Example 168.1, 8-(6-Amino-5-methoxymethyl-pyridin-3-yl)-1-(1-isopropyl-3-methyl-1H-pyrazol-4-yl)-3-methyl-1,3-dihydro-imidazo[4,5-c]quinolin-2-one] |
| 0.199 | 0.155 | Cc1cc(-n2c(=O)n(C)c3cnc4ccc(-c5cncc(N6CCOCC6)c5)cc4c32)n(C)n1 [Example 175.2, 1-(2,5-Dimethyl-2H-pyrazol-3-yl)-3-methyl-8-(5-morpholin-4-yl-pyridin-3-yl)-1,3-dihydro-imidazo[4,5-c]quinolin-2-one] |
| 0.012 | 0.01 | Cc1nn(C)cc1-n1c(=O)n(C)c2cnc3ccc(-c4cncc(OCCF)c4)cc3c21 [Example 181, 1-(1,3-Dimethyl-1H-pyrazol-4-yl)-8-[5-(2-fluoro-ethoxy)-pyridin-3-yl]-3-methyl-1,3-dihydro-imidazo[4,5-c]quinolin-2-one] |
| 0.009 | 0.003 | COc1ncc(-c2ccc3ncc4c(c3c2)n(-c2cn(C)nc2Cl)c(=O)n4C)cc1CO [Example 200, 1-(3-Chloro-1-methyl-1H-pyrazol-4-yl)-8-(5-hydroxymethyl-6-methoxy-pyridin-3-yl)-3-methyl-1,3-dihydro-imidazo[4,5-c]quinolin-2-one] |
| 0.004 | 0.027 | COCc1cc(-c2ccc3ncc4c(c3c2)n(-c2cn(C)nc2Cl)c(=O)n4C)cnc1OC [Example 201, 1-(3-Chloro-1-methyl-1H-pyrazol-4-yl)-8-(6-methoxy-5-methoxymethyl-pyridin-3-yl)-3-methyl-1,3-dihydro-imidazo[4,5-c]quinolin-2-one] |
| 0.012 | 0.139 | Cc1nn(C(C)C)cc1-n1c(=O)n(C)c2cnc3ccc(-c4cncc(C(O)(CF)CF)c4)cc3c21 [Example 219, 8-[5-(2-Fluoro-1-fluoromethyl-1-hydroxy-ethyl)-pyridin-3-yl]-1-(1-isopropyl-3-methyl-1H-pyrazol-4-yl)-3-methyl-1,3-dihydro-imidazo[4,5-c]quinolin-2-one] |

Further lines, the molecule ahead of its results:

| SMILES | IC50 (PI3K alpha) [µM] | IC50 (mTOR) [µM] |
| --- | --- | --- |
| Cc1nn(CC(=O)N(C)C)c(C)c1-n1c(=O)n(C)c2cnc3ccc(-c4cnc(N)c(C(F)(F)F)c4)cc3c21 [Example 25.2, 2-{4-[8-(6-Amino-5-trifluoromethyl-pyridin-3-yl)-3-methyl-2-oxo-2,3-dihydro-imidazo[4,5-c]quinolin-1-yl]-3,5-dimethyl-pyrazol-1-yl}-N,N-dimethyl-acetamide] | 0.013 | 0.152 |
| Cc1nn(C)c(C)c1-n1c(=O)n(C)c2cnc3ccc(-c4cnc(N)c(C(F)(F)F)c4)cc3c21 [Example 25.3, 8-(6-Amino-5-trifluoromethyl-pyridin-3-yl)-3-methyl-1-(1,3,5-trimethyl-1H-pyrazol-4-yl)-1,3-dihydro-imidazo[4,5-c]quinolin-2-one] | 0.059 | 0.116 |
| Cc1nn(C(C)C)cc1-n1c(=O)n(C)c2cnc3ccc(-c4cnc(N)c(C(F)(F)F)c4)cc3c21 [Example 25.4, 8-(6-Amino-5-trifluoromethyl-pyridin-3-yl)-1-(1-isopropyl-3-methyl-1H-pyrazol-4-yl)-3-methyl-1,3-dihydro-imidazo[4,5-c]quinolin-2-one] | 0.012 | 0.006 |
| Cc1noc(C)c1-n1c(=O)n(C)c2cnc3ccc(-c4cnc(N)c(C(F)(F)F)c4)cc3c21 [Example 25.5, 8-(6-Amino-5-trifluoromethyl-pyridin-3-yl)-1-(3,5-dimethyl-isoxazol-4-yl)-3-methyl-1,3-dihydro-imidazo[4,5-c]quinolin-2-one] | 0.03 | 0.432 |
| COc1ncc(-c2ccc3ncc4c(c3c2)n(-c2cn(C)nc2C)c(=O)n4C)cc1N(C)C(C)=O [Example 62, N-{5-[1-(1,3-Dimethyl-1H-pyrazol-4-yl)-3-methyl-2-oxo-2,3-dihydro-1H-imidazo[4,5-c]quinolin-8-yl]-2-methoxy-pyridin-3-yl}-N-methyl-acetamide] | 0.061 | 0.642 |
| CNc1ncc(-c2ccc3ncc4c(c3c2)n(-c2c(C)nn(C)c2C)c(=O)n4C)cn1 [Example 80.2] | 0.042 | 0.12 |
| Cc1nn(C)cc1-n1c(=O)n(C)c2cnc3ccc(-c4cnc(N)nc4)cc3c21 [Example 81.1, 8-(2-Amino-pyrimidin-5-yl)-1-(1,3-dimethyl-1H-pyrazol-4-yl)-3-methyl-1,3-dihydro-imidazo[4,5-c]quinolin-2-one] | 0.075 | 0.004 |
| Cc1nn(C)cc1-n1c(=O)n(C)c2cnc3ccc(-c4cccc(OC(C)C)c4F)cc3c21 [Example 83, 1-(1,3-Dimethyl-1H-pyrazol-4-yl)-8-(2-fluoro-3-isopropoxy-phenyl)-3-methyl-1,3-dihydro-imidazo[4,5-c]quinolin-2-one] | 0.074 | 0.061 |
| COCCOc1cc(-c2ccc3ncc4c(c3c2)n(-c2cn(C)nc2C)c(=O)n4C)cnc1C [Example 86.2, 1-(1,3-Dimethyl-1H-pyrazol-4-yl)-8-[5-(2-methoxy-ethoxy)-6-methyl-pyridin-3-yl]-3-methyl-1,3-dihydro-imidazo[4,5-c]quinolin-2-one] | 0.009 | 0.031 |
| CCNc1cc(-c2ccc3ncc4c(c3c2)n(-c2cn(C)nc2Cl)c(=O)n4C)cnc1OC [Example 90.1, 1-(3-Chloro-1-methyl-1H-pyrazol-4-yl)-8-(5-ethylamino-6-methoxy-pyridin-3-yl)-3-methyl-1,3-dihydro-imidazo[4,5-c]quinolin-2-one] | 0.043 | 0.005 |
| CNc1ccc(-c2ccc3ncc4c(c3c2)n(-c2cn(C)nc2Cl)c(=O)n4C)cn1 [Example 118.5, 1-(3-Chloro-1-methyl-1H-pyrazol-4-yl)-3-methyl-8-(6-methylamino-pyridin-3-yl)-1,3-dihydro-imidazo[4,5-c]quinolin-2-one] | 0.009 | < 0.003 |
| Cc1nn(C)cc1-n1c(=O)n(C)c2cnc3ccc(-c4cnc(N)c(F)c4)cc3c21 [Example 142.2, 8-(6-Amino-5-fluoro-pyridin-3-yl)-1-(1,3-dimethyl-1H-pyrazol-4-yl)-3-methyl-1,3-dihydro-imidazo[4,5-c]quinolin-2-one] | 0.018 | 0.006 |
| [2H]C([2H])([2H])Nc1ncc(-c2ccc3ncc4c(c3c2)n(-c2c(C)nn(C)c2C)c(=O)n4C)cc1C(F)(F)F [Example 143, 3-Methyl-8-(6-trideuteromethylamino-5-trifluoromethyl-pyridin-3-yl)-1-(1,3,5-trimethyl-1H-pyrazol-4-yl)-1,3-dihydro-imidazo[4,5-c]quinolin-2-one] | 0.019 | 0.113 |
| CCNc1ncc(-c2ccc3ncc4c(c3c2)n(-c2c(C)nn(C)c2C)c(=O)n4C)cc1C(F)(F)F [Example 145.1, 8-(6-Ethylamino-5-trifluoromethyl-pyridin-3-yl)-3-methyl-1-(1,3,5-trimethyl-1H-pyrazol-4-yl)-1,3-dihydro-imidazo[4,5-c]quinolin-2-one] | 0.042 | 0.172 |
| CNc1ncc(-c2ccc3ncc4c(c3c2)n(-c2cn(C(C)C)nc2C)c(=O)n4C)cc1Cl [Example 146.3, 8-(5-Chloro-6-methylamino-pyridin-3-yl)-1-(1-isopropyl-3-methyl-1H-pyrazol-4-yl)-3-methyl-1,3-dihydro-imidazo[4,5-c]quinolin-2-one] | 0.05 | 0.009 |
